# pEC50: −log10 of the molar value. Where two headings read alike, the source gives them in different places.
# Columns and labels:
# [1] = Mouse liver microsome assay; type: in vitro ADME; settings: for ER: extraction ratio; for ER / Non-P450 turn-over / half-life at 1 μM: mouse liver microsomes; for half-life at 1 μM / CLint scaled at 1 μM: 1 μM compound; for half-life at 1 μM: read-out: t ½; for CLint scaled at 1 μM: mouse
# Method: Microsomal incubations are run at a final P450 concentration of 0.25 μM. […] The mixture is prewarmed for 5 min at 37° C. To initiate the reaction a 12 mM stock of NAPDH (1.2 mM, final concentration) is added to the warmed microsomal mixture and aliquots are removed at 0, 5, 10, 20 and 30 min. […] Samples are vortexed and spun down at 3200 rpm for 5 min. The supernant is transferred to 96-deep well plates and run on LC/MS/MS.
# [2] = MTT cytotoxicity assay in HepDES19 cells; type: cell-based; settings: human
# Method: 1.0×10^4 HepDES19 cells per well were seeded in 96-well plates and incubated in DMEM with 10% FBS plus 1% P/S, 1% non-essential amino acids, and 1% glutamine. Compounds were diluted in medium to the indicated concentrations plus 1% DMSO and added to cells 24 hours after plating, with each concentration tested in triplicate. Medium containing the compound was refreshed daily for the next two days. Thiazolyl blue tetrazolium bromide (MTT, Sigma-Aldrich) was added to 0.25 mg/mL, the cultures were incubated for 60 minutes, metabolites were solubilized in acidic isopropanol, and absorbance was read at 570 nm.
# HBV = HBV replication assay in HepDES19 cells; type: cell-based, hepatitis B virus; design: key to Qualitative HBV replication inhibition assay: **: + DNA suppression <25% and − DNA suppression >60%; *: + DNA suppression <50% of − DNA suppression; settings: for pEC50: Hepatitis B virus, HBV replication, HepDES19 cells; for Qualitative HBV replication inhibition assay: plus- vs minus-polarity DNA strand suppression
# Method: Inhibition of HBV replication was measured in HepDES19 cells as previously described in Cai, et al. (2014). Cells were seeded into 6-well plates and incubated in DMEM/F12, 10% fetal bovine serum (FBS), 1% penicillin/streptomycin (P/S) with 1 μg/mL tetracycline. Tetracycline was withdrawn after 24 hours. The test compound was applied to duplicate wells 48 hours later in medium containing a final DMSO concentration of 1%, and medium containing the compound was refreshed daily for the following two days. Cells were harvested and non-encapsidated nucleic acids were digested with micrococcal nuclease (New England Biolabs). HBV DNA was purified from capsids using QIAamp Cador Pathogen Mini Kit (Qiagen) with proteinase K incubation overnight at 37° C. TaqMan PCR was performed for 40 cycles at an annealing temperature of 60° C. Primers and probe (IDT Inc.) for the plus-polarity strand were: 5′[…]3′ (SEQ ID NO: 1); 5′[…]3′ (SEQ ID NO: 2); 5′/56-FAM/[…]/ZEN/[…]/3IABkFQ (SEQ ID NO: 3). Primers and probe for the minus-polarity strand were: 5′[…]3′ (SEQ ID NO: 4; 5′[…]3′ (SEQ ID NO: 5); 5′/56-FAM/[…]/ZEN/[…]/3IABkFQ (SEQ ID NO: 6).
# HSV-2 = experiment: Anti-HSV-2 replication assay (virus yield by plaque assay on Vero cells); type: cell-based, herpes simplex virus 2 (HSV-2); settings: for HSV-2 Log10 suppression 5 μM / HSV-2 Log10 suppression 50 μM: Vero cells, moi 0.1, 24 h, relative to DMSO control
# Method: (§1) Vero cells were maintained in Dulbecco's modified Eagle's medium (DMEM) containing 3% newborn calf serum, 3% bovine growth serum, 2 mM L-glutamine and 100 IU/mL penicillin and 0.1 mg/mL streptomycin (P/S). HSV-1 #6 and HSV-2 #1 are de-identified clinical isolates from the Saint Louis University Hospital. Stocks were prepared after a single passage in cell culture and were titered by standard plaque assay (Knipe and Spang, 1982). Wild-type HSV-2 used in FIG. 3 was laboratory strain 333. […] Virus stocks were grown and titered on Vero cells (Morrison and Knipe, 1996).
# (§2) Compounds to be screened were diluted in PBS supplemented to contain 2% newborn calf serum and 1% glutamine, and added in 100 μL volume to confluent cell monolayers in 24-well cluster plates. Immediately thereafter HSV-1 and HSV-2, diluted in the supplemented PBS medium, were added to the wells in 50 μl volume such that the final concentration of compound was 50 μM, 5 μM and 1 μM and the multiplicity of infection was 0.1. The plates were incubated at 37° C. for 1 hour and then virus-containing inoculum was removed and the wells were washed once in PBS. Compound, diluted to 50 μM, 5 μM and 1 μM in DMEM supplemented to contain 2% newborn calf serum and 1% each penicillin/streptomycin, was added at 0.5 mL/well. Plates were incubated at 37° C. an additional 23 hours, and then the plates were visually inspected through a phase contrast microscope for cytopathic effect, and for toxic effect. The entire contents of each well were collected by scraping. Samples were frozen at −80° C., and then subsequently thawed, sonicated, and infectious virus titer was determined by standard plaque assay on Vero cell monolayers. Because the compounds were dissolved at 10 mM in 100% DMSO, equivalent dilutions of DMSO were added to additional wells as a control for effects of the diluent. Each experiment was repeated once. EC50 values were determined as above except that serial dilutions of the compound to be tested were prepared starting at 50 μM. The inhibitory values were calculated by non-linear curve-fitting in GraphPad Prism.
# HSV-1 = experiment: Anti-HSV-1 replication assay (virus yield by plaque assay on Vero cells); type: cell-based, herpes simplex virus 1 (HSV-1); settings: for HSV-1 Log10 suppression 5 μM / HSV-1 Log10 suppression 50 μM: Vero cells, moi 0.1, 24 h, relative to DMSO control
# Method: as §1, §2
# [3] = test system: TK-deficient mutant of HSV-2 strain 333, ΔTK-; experiment: Replication of TK-deficient HSV-2 mutant in Vero cells; type: cell-based, herpes simplex virus 2 (HSV-2); settings: 5 μM, 24 h (FIG. 3)
# Method: Vero cells were maintained in Dulbecco's modified Eagle's medium (DMEM) containing 3% newborn calf serum, 3% bovine growth serum, 2 mM L-glutamine and 100 IU/mL penicillin and 0.1 mg/mL streptomycin (P/S). HSV-1 #6 and HSV-2 #1 are de-identified clinical isolates from the Saint Louis University Hospital. Stocks were prepared after a single passage in cell culture and were titered by standard plaque assay (Knipe and Spang, 1982). Wild-type HSV-2 used in FIG. 3 was laboratory strain 333. The TK-deficient mutant of HSV-2 strain 333, ΔTK-, contains a 180-bp KpnI-KpnI deletion in the UL23 open reading frame that abrogates TK activity (McDermott, et al, 1984). ΔTK—was the generous gift of Jim Smiley. Virus stocks were grown and titered on Vero cells (Morrison and Knipe, 1996).
# ACV is a nucleoside analog prodrug that must be phosphorylated by the viral thymidine kinase (TK) for it to become a substrate for the viral DNA polymerase (Elion, et al., 1977). HSV TK-deficient mutants are therefore insensitive to ACV. […] Vero cells were infected with a laboratory strain of HSV-2 and an engineered TK-deficient mutant of the same strain. […] ACV 5 μM inhibited wild-type HSV-2 replication 100-fold, but it had little effect on the TK-mutant (FIG. 3).
# in vitro = type: cell-based; settings: African green monkey
# Method: Qualitative assessments of cytotoxicity were done visually by inspecting the cells in the primary screening assays. For the quantitative assays, cells were plated in 96-well plates at 1.0×10^4 per well. The next day the compounds were added at 0.78 to 100 μM in a final concentration of 1% (v/v) DMSO, and the cells were incubated for 24 hours under conditions identical to those employed for the viral replication inhibition assays. Mitochondrial toxicity was measured by incubating the cells with 0.25 mg/mL thiazolyl blue tetrazolium bromide (MTT, SigmaAldrich Chemical Co.), the cultures were incubated for 60 min, metabolites were solubilized in acidic isopropanol, and absorbance was read at 570 nm. CC50 values were calculated by non-linear curve fitting using GraphPad Prism.
# A quantitative toxicity measurement was conducted. Toxicity was assessed by measuring release of intracellular proteases into the culture medium due to cellular lysis. Cells were plated in 96-well plates at 1.0×10^4 per well. The next day compound was added in concentrations ranging from 0.78 to 100 μM in a final concentration of 1% (v/v) DMSO. The cells were incubated for 24 hours under conditions identical to those employed for the viral replication inhibition assays, and then […] according to the manufacturer's instructions. […]
Compound,CC50 at 3 days [2] [µM],pEC50 (HBV),Qualitative HBV replication inhibition assay (HBV),HSV-2 Log10 suppression 5 μM (HSV-2) [log10],HSV-2 Log10 suppression 50 μM (HSV-2) [log10],HSV-1 Log10 suppression 5 μM (HSV-1) [log10],HSV-1 Log10 suppression 50 μM (HSV-1) [log10],other results
Cc1cc(C2CCCCC2)n(O)c(=O)c1 [#41],,,,,,,,"ER [1]: 0.16; Non-P450 turn-over [1]: No; half-life at 1 μM [1]: > 2 h; CLint scaled at 1 μM ([1]; microsomes, read-out: CL ‘hep): 14 mL/min/kg; CLint scaled at 1 μM ([1]; microsomes, read-out: CL’int): 17 mL/min/kg"
C/C(=N\c1ccccc1N)c1c(C)cc(=O)n(O)c1O [#208],15,6.16,**,0.11,0.26,0.15,2.63,"ER [1]: <0.1; Non-P450 turn-over [1]: No; half-life at 1 μM [1]: > 2 h; CLint scaled at 1 μM ([1]; liver microsomes, read-out: CL ‘hep): 163 mL/min/kg"
"Nc1nc2c(ncn2COCCO)c(=O)[nH]1 [Acyclovir, acyclovir, reference compound]",,,,3.91,5.25,3.61,5.39,inhibition of TK-mutant HSV-2 [3]: little effect; HSV-2 Log10 suppression 5 μM (HSV-2; listed as acyclovir): 3.6 log10; CC50 at 24 h (in vitro): > 100 µM; HSV-1 Log10 suppression 5 μM (HSV-1; listed as acyclovir): 4.22 log10
Cc1ccc(O)c(=O)c(O)c1 [#210],71,5.82,**,,,,,
O=c1cc(NCc2ccccc2)c2cccnc2n1O [#151],15,5.33,**,,,,,suppression of HSV-2 replication in cell culture (HSV-2; 5 μM or less): strongly suppressed; suppression of HSV-1 replication in cell culture (HSV-1; 5 μM or less): strongly suppressed
NCc1cccc(-c2ccc(Cc3cc(=O)n(O)c4ncccc34)cc2)c1 [Compound 153],10,5.39,**,,,,,
CC(C)=CCc1ccc(=O)c(O)cc1C(C)C [#49],9,,,,,,,
Cc1cc(COc2ccc(Oc3ccc(Cl)cc3)cc2)n(O)c(=O)c1 [#211],30,4.89,**,0.04,1.81,0.08,1.6,

# — patent US11191754B2, “Inhibitors of nucleotidyl transferases and uses in herpes and hepatitis viral infections therefor” (Saint Louis University, priority 2015, dated 2021)
